From patent US20260327242A1, “Platform and Scaffold for FAP Targeting Agents” (Erasmus University Medical Center Rotterdam, priority 2022, published 2026) come the findings set out here.

One data set deals with U-87 cells. The data set can be described thus: Cytotoxicity assay in FAP+ U-87 cells (resazurin). It counts as cell-based. Here is the method:
In 96-well plates, U-87 cells (3×10^3) were seeded in each well and incubated at 37° C. and 5% CO2 for 24 h. The medium was removed and the wells were washed once with PBS. The cytotoxic drug (positive control) or the eFAP conjugate containing the drug were prepared at various concentrations (i.e., 1, 10, 100, 1000 nM) in DMEM culture medium, supplemented with 2 mM L-glutamine, 10% FBS, 50 units/mL penicillin, and 50 μg/mL streptomycin. Medium was used as a negative control. Cells were incubated with 100 μL of the tested compounds for 1, 24, 48, and 72 h. After incubation, medium was removed and each well was washed once with PBS. Next, 100 μL of 10% resazurin solution in culture medium was added to each well and incubated for 2.5 h. Fluorescence measurements were carried out using a microplate reader at 544 nm excitation and 590 nm emission.
In general terms: Alamar Blue is a resazurin reagent that responds to reducing activity.

A further data set has as its target T1, mouse FAP (mFAP) (Mus musculus, UniProt P97321).
T1 sequence (P97321 26-761 limits assumed): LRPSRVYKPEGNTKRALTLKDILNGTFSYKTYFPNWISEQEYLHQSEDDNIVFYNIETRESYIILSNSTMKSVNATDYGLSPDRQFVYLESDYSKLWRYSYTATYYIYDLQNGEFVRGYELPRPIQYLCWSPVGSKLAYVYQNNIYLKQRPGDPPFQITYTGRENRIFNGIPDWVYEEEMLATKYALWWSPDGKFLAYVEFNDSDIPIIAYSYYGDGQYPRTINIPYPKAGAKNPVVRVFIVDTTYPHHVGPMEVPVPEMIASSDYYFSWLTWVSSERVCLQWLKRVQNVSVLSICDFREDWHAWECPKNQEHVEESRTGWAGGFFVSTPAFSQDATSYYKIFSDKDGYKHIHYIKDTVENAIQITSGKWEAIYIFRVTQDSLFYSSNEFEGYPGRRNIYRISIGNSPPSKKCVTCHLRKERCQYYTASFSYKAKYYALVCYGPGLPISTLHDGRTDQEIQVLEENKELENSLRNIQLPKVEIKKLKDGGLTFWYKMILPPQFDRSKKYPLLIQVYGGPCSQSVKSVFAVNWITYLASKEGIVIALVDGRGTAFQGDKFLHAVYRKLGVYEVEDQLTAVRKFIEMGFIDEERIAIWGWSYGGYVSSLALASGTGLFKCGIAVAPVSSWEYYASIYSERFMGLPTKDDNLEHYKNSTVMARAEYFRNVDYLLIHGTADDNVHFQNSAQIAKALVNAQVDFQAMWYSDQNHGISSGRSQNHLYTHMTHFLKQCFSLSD
The data set is described as follows: In vitro inhibition assay on mouse FAP (Z-GP-AMC substrate). It counts as biochemical. Particulars: 20 μM Z-GP-AMC, 20 nM FAP, pH 7.4, room temperature. Here is the method: (§1) Enzymatic activity of human FAP (hFAP) and mouse FAP (mFAP) on the Z-GP-AMC substrate was measured at room temperature on a Hidex microplate reader by monitoring the fluorescence at an excitation wavelength of 360 nm and an emission wavelength of 465 nm. The reaction mixture contained 20 μM substrate, 20 nM FAP, assay buffer (50 mM Tris, 100 mM NaCl, 1 mM EDTA, pH 7.4) and tested compound (serial dilution from 10-6 to 10^−12) in a total volume of 50 μL.
Results with FAPI-46 obtained in the same assay is included for comparison.

The subject of a further data set is U-87 tumor. The data set can be described thus: Near-infrared fluorescence imaging of U-87 tumor bearing mice. The class given is in vivo, mouse. Particulars: 2 nmol i.v., imaging 1 h, excised tumors 2.5 h. The text has this:
Six-week-old male Balb/c nu/nu-specific and opportunistic pathogen-tree (SOPF) mice were housed in individually ventilated cages, with 4 mice per cage. Upon arrival, mice were acclimated for 1 week, with access to food and water ad libitum. Mice were subcutaneously inoculated on the right shoulder with U-87 or HT-1080.hFAP cells (1×10^6 cells). Xenografts were allowed to grow until they reached an appropriate size at the start of the studies. All animal experiments were approved by the Animal Welfare Committee of the Erasmus MC and were conducted in agreement with institutional guidelines (license number: AVD101002017867).
Evaluation of targeting performance of eFAP-17 in near-infrared fluorescence imaging of U-87 tumor bearing mice after intravenous injection of 2 nmol of the probe are given in FIG. 9 showing A) NIRF imaging of U-87 tumor bearing mice at 1 h after intravenous injection of 2 nmol of CW800 (left, negative control) or eFAP-17 (right) and B) image of excised tumors 2.5 h post administration of CW800 (left) or eFAP-17 (right).

A further data set deals with T2, human FAP (hFAP) (Homo sapiens, UniProt Q12884).
T2 sequence (Q12884 26-760 limits assumed): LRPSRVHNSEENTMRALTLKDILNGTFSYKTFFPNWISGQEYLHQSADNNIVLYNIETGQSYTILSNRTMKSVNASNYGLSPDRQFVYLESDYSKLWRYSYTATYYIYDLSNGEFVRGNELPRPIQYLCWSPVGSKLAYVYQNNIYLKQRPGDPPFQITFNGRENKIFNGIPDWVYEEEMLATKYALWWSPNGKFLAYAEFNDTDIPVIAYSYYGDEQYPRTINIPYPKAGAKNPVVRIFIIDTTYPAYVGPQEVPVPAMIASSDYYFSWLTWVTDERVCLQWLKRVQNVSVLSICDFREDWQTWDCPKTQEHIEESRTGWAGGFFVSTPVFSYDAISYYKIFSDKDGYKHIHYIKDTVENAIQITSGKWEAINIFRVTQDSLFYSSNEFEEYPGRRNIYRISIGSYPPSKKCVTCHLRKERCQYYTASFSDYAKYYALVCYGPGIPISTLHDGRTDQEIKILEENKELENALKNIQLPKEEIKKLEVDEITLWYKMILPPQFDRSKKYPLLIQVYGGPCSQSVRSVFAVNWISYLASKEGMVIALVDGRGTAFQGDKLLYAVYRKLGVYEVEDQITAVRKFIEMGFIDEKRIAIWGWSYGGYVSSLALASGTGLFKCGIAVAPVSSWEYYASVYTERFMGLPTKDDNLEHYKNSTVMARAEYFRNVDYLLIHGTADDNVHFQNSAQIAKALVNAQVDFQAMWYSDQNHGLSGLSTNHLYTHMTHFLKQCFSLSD
The data set is described as follows: In vitro inhibition assay on human FAP (Z-GP-AMC substrate). It counts as biochemical. Particulars: 20 μM Z-GP-AMC, 20 nM FAP, pH 7.4, room temperature. How it is done: as §1

One may read the cell viability as a read-out of living cells in per cent, often relative to untreated cells. For the compound `COc1cc2cc(c1Cl)N(C)C(=O)C[C@H](OC(=O)[C@H](C)N(C)C(=O)CCS)[C@]1(C)O[C@H]1[C@H](C)[C@@H]1C[C@@](O)(NC(=O)O1)[C@H](OC)/C=C/C=C(\C)C2` [DM1, Mertansine, reference compound], the cell viability in the data set with U-87 cells (FAP+ U-87 cells, single dose of eFAP-18 (1 μM) compared with the parent drug DM1) turned out to be 40%.
A word on the IC50: it is the concentration that inhibits the measured activity by half. Turning to `CC1(C)C(/C=C/C2=C(Oc3ccc(S(=O)(=O)O)cc3)C(=C/C=C3/N(CCCCCC(=O)NCCCOc4cccc5c(C(=O)NCC(=O)N6CC(F)(F)C[C@H]6C#N)ccnc45)c4ccc(S(=O)(=O)O)cc4C3(C)C)/CCC2)=[N+](CCCCS(=O)(=O)[O-])c2ccc(S(=O)(=O)O)cc21` [eFAP-17, 4-(2-((E)-2-((E)-3-(2-((E)-1-(6-((3-((4-((2-((S)-2-Cyano-4,4-difluoropyrrolidin-1-yl)-2-oxoethyl)carbamoyl)quinolin-8-yl)oxy)propyl)amino)-6-oxohexyl)-3,3-dimethyl-5-sulfoindolin-2-ylidene)ethylidene)-2-(4-sulfophenoxy)cyclohex-1-en-1-yl)vinyl)-3,3-dimethyl-5-sulfo-3H-indol-1-ium-1-yl)butane-1-sulfonate], at mouse FAP (mFAP), it took 5 ± 0.2 nM to reach half-maximal inhibition (IC50). In addition, in the data set with U-87 tumor, the “accumulation in healthy tissues, NIRF imaging (in words)” value is reported as “low accumulation in healthy tissues” and the “tumor uptake, NIRF imaging (in words)” value was “high uptake in the FAP overexpressing tumor”.
What is called viability is the share of living cells, or the viability signal relative to a control. `COc1cc2cc(c1Cl)N(C)C(=O)CC(OC(=O)C(C)N(C)C(=O)CCSSCCC(=O)NCCCOc1cccc3c(C(=O)NCC(=O)N4CC(F)(F)CC4C#N)ccnc13)C1(C)OC1C(C)C1CC(O)(NC(=O)O1)C(OC)C=CC=C(C)C2` [eFAP-18, (1^4S,1^6S,3^2S,3^3S,2R,4S,10E,12E,14R)-8^6-chloro-1^4-hydroxy-8^5,14-dimethoxy-3^3,2,7,10-tetramethyl-1^2,6-dioxo-7-aza-1(6,4)-oxazinana-3(2,3)-oxirana-8(1,3)-benzenacyclotetradecaphane-10,12-dien-4-yl N-(3-((3-((3-((4-((2-((S)-2-cyano-4,4-difluoropyrrolidin-1-yl)-2-oxoethyl)carbamoyl)quinolin-8-yl)oxy)propyl)amino)-3-oxopropyl)disulfaneyl)propanoyl)-N-methyl-L-alaninate]: the IC50 amounted to 2.6 ± 0.8 nM against human FAP (hFAP) and 2 ± 0.1 nM against mouse FAP (mFAP). Besides, the viability at 1 µM in the data set on U-87 cells (Homo sapiens, U-87 MG, read-out: cell viability) was about 25%.
Regarding `CC1(C)C(=CC=C2CCCC(C=CC3=[N+](CCCCS(=O)(=O)[O-])c4ccc(S(=O)(=O)O)cc4C3(C)C)=C2Oc2ccc(S(=O)(=O)O)cc2)N(CCCCCC(=O)NCC(O)CC(=O)NCC(O)CC(=O)NCCCOc2cccc3c(C(=O)NCC(=O)N4CC(F)(F)C[C@H]4C#N)ccnc23)c2ccc(S(=O)(=O)O)cc21` (stereo partly drawn) [eFAP-24, 2-((E)-2-((E)-3-(2-((E)-1-(6-((4-((4-((3-((4-((2-((S)-2-cyano-4,4-difluoropyrrolidin-1-yl)-2-oxoethyl)carbamoyl)quinolin-8-yl)oxy)propyl)amino)-2-hydroxy-4-oxobutyl)amino)-2-hydroxy-4-oxobutyl)amino)-6-oxohexyl)-3,3-dimethyl-5-sulfonatoindolin-2-ylidene)ethylidene)-2-(4-sulfonatophenoxy)cyclohex-1-en-1-yl)vinyl)-3,3-dimethyl-1-(4-sulfonatobutyl)-3H-indol-1-ium-5-sulfonate], the IC50 was 3.04 ± 0.18 nM at human FAP (hFAP) and 2.96 ± 0.15 nM against mouse FAP (mFAP).
For the compound `CC1(C)C(/C=C/C2=C(Oc3ccc(S(=O)(=O)O)cc3)C(=C/C=C3/N(CCCCCC(=O)NCC(O)CC(=O)NCCCOc4cccc5c(C(=O)NCC(=O)N6CC(F)(F)C[C@H]6C#N)ccnc45)c4ccc(S(=O)(=O)O)cc4C3(C)C)/CCC2)=[N+](CCCCS(=O)(=O)[O-])c2ccc(S(=O)(=O)O)cc21` (stereo partly drawn) [eFAP-27, 4-(2-((E)-2-((E)-3-(2-((E)-1-(6-((4-((3-((4-((2-((S)-2-cyano-4,4-difluoropyrrolidin-1-yl)-2-oxoethyl)carbamoyl)quinolin-8-yl)oxy)propyl)amino)-2-hydroxy-4-oxobutyl)amino)-6-oxohexyl)-3,3-dimethyl-5-sulfoindolin-2-ylidene)ethylidene)-2-(4-sulfophenoxy)cyclohex-1-en-1-yl)vinyl)-3,3-dimethyl-5-sulfo-3H-indol-1-ium-1-yl)butane-1-sulfonate], the figures for the IC50 at human FAP (hFAP) and against mouse FAP (mFAP) were 4.01 ± 0.28 nM and 3.72 ± 0.11 nM, respectively.
